These results are taken from patent EP2951180B1, “2,6,7,8 SUBSTITUTED PURINES AS HDM2 INHIBITORS” (Merck Sharp & Dohme Corp., priority 2013, dated 2014).

Like-named read-outs stand apart in the source and are kept apart here.

The target of the experiment is T1, HDM2 (Homo sapiens, UniProt Q00987).
T1 construct: Thioredoxin (N); made in house; host or cells: E. coli strain BL21(DE3)Rosetta
Description: HDM2 FRET assay (inhibition of binding of FITC labeled p53-pocket peptide to HDM2). The settings on record: for IC50: read-out: FRET IC50. In a few lines: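 TR-FRET with 0.5 nM His-tagged recombinant HDM2, 3 nM FITC-labelled p53 peptide and 0.25 nM Tb-anti-His antibody in PBS, 0.01% BSA, 0.01% Tween-20, 0.1% DMSO. IC50 from em520/em495 ratio over 10-point dilutions, 4-parameter logistic fit.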

The mark [1] stands for this setting: 0.5 nM HDM2 (residues 17 to 125), 3nM peptide, two hour incubation at room temperature.

T1 sequence (Q00987 17-125): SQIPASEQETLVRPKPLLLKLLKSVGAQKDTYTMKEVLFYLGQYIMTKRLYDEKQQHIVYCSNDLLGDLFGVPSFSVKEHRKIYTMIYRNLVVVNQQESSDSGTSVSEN

On to `CCN(CCN1CCCC1)c1nc2nc(-c3noc(=O)[nH]3)nc(N[C@H](C)C3CCC3)c2n1Cc1ccc(C(F)(F)F)cc1` [Example 9.97, 3-(6-{[(1R)-1-cyclobutylethyl]amino}-8-[ethyl(2-pyrrolidin-1-ylethyl)amino]-7-[4-(trifluoromethyl)benzyl]-7H-purin-2-yl)-1,2,4-oxadiazol-5(4H)-one], for which, under “Table 9”, the IC50 came to 23.9 nM.

For the compound `CC(Nc1nc2nc(-c3noc(=O)[nH]3)nc(N[C@H](C)C3CCC3)c2n1C[C@H]1CC[C@H](C)CC1)c1ccno1` (stereo partly drawn) [Example 11.87, 3-(6-{[(1R)-1-cyclobutylethyl]amino}-8-[(1-isoxazol-5-ylethyl)amino]-7-[(trans-4-methylcyclohexyl)methyl]-7H-purin-2-yl)-1,2,4-oxadiazol-5(2H)-one], the IC50 (Table 11) stood at 105 nM.

In the case of `Cc1cccc(-c2nc3nc(C(=O)O)nc(N(C)Cc4ccccc4)c3n2Cc2ccc(C(F)(F)F)cc2)c1` [Example 6.67, 6-[benzyl(methyl)amino]-8-(3-methylphenyl)-7-[4-(trifluoromethyl)benzyl]-7H-purine-2-carboxylic acid], under “read-out: inh. at 1000 nM (FRET)”, the inhibition at 1 µM was 30%.

Turning to `C[C@@H](Nc1nc(C(=O)O)nc2nc(N3CCCCC3Cc3ccc(F)cc3)n(C[C@H]3CC[C@H](C)CC3)c12)C1CCC1` (stereo partly drawn) [Example 11.56, 6-{[(1R)-1-cyclobutylethyl]amino}-8-[2-(4-fluorobenzyl)piperidin-1-yl]-7-[(trans-4-methylcyclohexyl)methyl]-7H-purine-2-carboxylic acid], for the setting “Table 11”, the concentration for half-maximal inhibition (IC50) worked out at 11.6 nM.

On to `Cc1cccc(-c2nc3nc(C(=O)O)nc(N[C@H](C)C4CCCCC4)c3n2Cc2ccc(Cl)cc2)c1` [Example 6.4, 7-(4-chlorobenzyl)-6-{[(1R)-1-cyclohexylethyl]amino}-8-(3-methylphenyl)-7H-purine-2-carboxylic acid], for which the IC50 (Table 6) came to 1030 nM.

In the case of `C[C@@H]1COCCN1c1nc2nc(-c3noc(=O)[nH]3)nc(-c3cccc(Cl)c3)c2n1C[C@H]1CC[C@H](C)CC1` [Example 16.6, 3-(6-(3-chlorophenyl)-7-(((trans)-4-methylcyclohexyl)methyl)-8-((R)-3-methylmorpholino)-7H-purin-2-yl)-1,2,4-oxadiazol-5(4H)-one], under setting [1], the IC50 was determined as 8.05 nM.

With `CC1CCCCN1c1nc2nc(C(=O)O)nc(N[C@H](C)C3CCC3)c2n1C[C@H]1CC[C@H](C)CC1` (stereo partly drawn) [Example 11.29, 6-{[(1R)-1-cyclobutylethyl]amino}-7-[(trans-4-methylcyclohexyl)methyl]-8-(2-methylpiperidin-1-yl)-7H-purine-2-carboxylic acid], the IC50 (Table 11) turned out to be 2.23 nM.

As to `C[C@H](C1CCC1)N(C)c1nc(C(=O)O)nc2nc(-c3cc(C(C)(C)C)ccn3)n(C[C@H]3CC[C@H](C)CC3)c12` [Example 15.20, 8-(4-tert-butylpyridin-2-yl)-6-{[(1R)-1-cyclobutylethyl] (methyl)amino} -7-[(trans-4-methylcyclohexyl)methyl]-7H-purine-2-carboxylic acid], the IC50 under setting [1] was found to be 17.9 nM.

Consider `C[C@@H](Nc1nc(-c2noc(=O)[nH]2)nc2nc(N3CCOC4CCCC43)n(C[C@H]3CC[C@H](C)CC3)c12)C1CCC1` (single isomer, unassigned) [Example 11.148], for which the IC50 (Table 11) worked out at 23.8 nM.

Take `CCCN(c1nc2nc(-c3noc(=O)[nH]3)nc(N[C@H](C)C3CCC3)c2n1Cc1ccc(C(F)(F)F)cc1)C1CCCCC1` [Example 9.96, 3-(6-{[(1R)-1-cyclobutylethyl]amino}-8-[cyclohexyl(propyl)amino]-7-[4-(trifluoromethyl)benzyl]-7H-purin-2-yl)-1,2,4-oxadiazol-5(4H)-one]: the IC50 (Table 9) was 16.2 nM.

Turning to `CCOC1(c2nc3nc(-c4noc(=O)[nH]4)nc(N[C@H](C)C4CCC4)c3n2C[C@H]2CC[C@H](C)CC2)CCC1` [Example 22.76, 3-(6-{[(1R)-1-cyclobutylethyl]amino}-8-(1-ethoxycyclobutyl)-7-[(trans-4-methylcyclohexyl)methyl] -7H-purin-2-yl)-1,2,4-oxadiazol-5(4H)-one], the IC50 (Table 22) stood at 4.22 nM.

Take `C[C@H]1CC[C@H](Cn2c(S(=O)(=O)C3CCCC3)nc3nc(-c4n[nH]c(=O)o4)nc(-c4cncc(Cl)c4)c32)CC1` [Example 19.5, 5-{6-(5-chloropyridin-3-yl)-8-(cyclopentylsulfonyl)-7-[(trans-4-methylcyclohexyl)methyl]-7H-purin-2-yl}-1,3,4-oxadiazol-2(3H)-one]: the IC50 (Table 19) was found to be 5.83 nM.

As to `C[C@@H](Nc1nc(C(=O)O)nc2nc(N3CCc4ccccc4C3)n(Cc3ccc(C(F)(F)F)cc3)c12)C1CCC1` [Example 9.121, 6-{[(1R)-1-cyclobutylethyl]amino}-8-(3,4-dihydroisoquinolin-2(1H)-yl)-7-[4-(trifluoromethyl)benzyl]-7H-purine-2-carboxylic acid], under “Table 9”, the IC50 was 10.6 nM.

Consider `CC(C)CC1CCCCN1c1nc2nc(-c3noc(=O)[nH]3)nc(N[C@H](C)C3CCC3)c2n1C[C@H]1CC[C@H](C)CC1` (stereo partly drawn) [Example 11.3, 3-(6-(((R)-1-cyclobutylethyl)amino)-8-(2-isobutylpiperidin-1-yl)-7-((trans-4-methylcyclohexyl)methyl)-7H-purine-2-yl)-1,2,4-oxadiazol-5(4H)-one], for which, under “Table 11”, the IC50 stood at 6.14 nM.

Turning to `C[C@@H]1COCCN1c1nc2nc(-c3noc(=O)[nH]3)nc(N[C@H](C)C3CCC3)c2n1C[C@H]1CC[C@H](C)CC1` [Example 11.65, 3-(6-{[(1R)-1-cyclobutylethyl]amino}-7-[(trans-4-methylcyclohexyl)methyl]-8-[(3R)-3-methylmorpholin-4-yl]-7H-purin-2-yl)-1,2,4-oxadiazol-5(4H)-one], the concentration for half-maximal inhibition (IC50) (Table 11) came out at 1.45 nM.

As for `CCC(C)CN(C)c1nc(C(=O)O)nc2nc(-c3cccc(C)c3)n(Cc3ccc(C(F)(F)F)cc3)c12` (stereo not shown) [Example 6.89, 6-[methyl(2-methylbutyl)amino]-8-(3-methylphenyl)-7-[4-(trifluoromethyl)benzyl]-7H-purine-2-carboxylic acid], the IC50 (Table 6) was determined as 730 nM.

`C[C@@H]1CN(C(=O)C2CC2)CCN1c1nc2nc(-c3noc(=O)[nH]3)nc(N[C@H](C)C3CCC3)c2n1C[C@H]1CC[C@H](C)CC1` [Example 17.16, 3-(6-{[(1R)-1-cyclobutylethyl]amino}-8-[(2R)-4-(cyclopropylcarbonyl) -2-methylpiperazin-1-yl]-7-[(trans-4-methylcyclohexyl)methyl]-7H-purin-2-yl)-1,2,4-oxadiazol-5(4H)-one]: for the setting “Table 17.2”, the IC50 was 1.22 nM.

As to `C[C@@H](Nc1nc(-c2n[nH]c(=O)o2)nc2nc(C3CCCCC3)n(C[C@H]3CC[C@H](C)CC3)c12)C1CCC1` [Example 21.40, 5-(6-{[(1R)-1-cyclobutylethyl]amino}-8-cyclohexyl-7-[(trans-4-methylcyclohexyl)methyl]-7H-purin-2-yl)-1,3,4-oxadiazol-2(3H)-one], the IC50 (Table 21) was 4.29 nM.

On to `COC[C@@H]1COCCN1c1nc2nc(-c3noc(=O)[nH]3)nc(-c3cccc(Cl)c3)c2n1C[C@H]1CC[C@H](C)CC1` [Example 16.59, 3-{6-(3-chlorophenyl)-8-[(3R)-3-(methoxymethyl)mor pholin-4-yl]-7-[(trans-4-methylcyclohexyl)methyl]-7H-purin-2-yl}-1,2,4-oxadiazol-5(4H)-one], for which, under setting [1], the IC50 is 19 nM.

One may read the IC50 as the concentration that gives 50% inhibition.
